Data set [1] concerns femoral arteries of porcine model. The data set is described as follows: morphometry of stented arteries (Example 4). The settings on record: for amount of restenosis observed (in words): 60 and 90 days. The class given is in vivo. Here is the method: (§1) In Example 4, formulations for stent drug coatings were prepared as subsequently described, followed by obtaining 7, 28, 60, and 90 days histological data from in vivo studies when implanted in femoral arteries of porcine model.
(§2) Five total formulations were used: a control of PVDF only, prepared at a concentration of 5 mg/mL in a solution of 90% acetone and 10% cyclohexane; a colchicine coating, prepared in a 5:1 PVDF: colchicine ratio with 5 mg/mL provided to 90% acetone and 10% DMF; a roflumilast coating at a 5:1 PVDF:roflumilast ratio, with […] provided to a 42.5% EtOAc, 50% acetone, and 7.5% DMF solution; a tadalafil coating prepared at 3:1 PVDF:tadalafil, provided at 5 mg/mL in a solution of 30% EtOAc, 60% acetone, and 10% DMF; and a sunitinib coating provided at 3:1 PVDF:sunitinib malate, prepared at 5 mg/mL in a solution of 60% MeOAc, 30% acetone, and 10% DMF. Coatings were provided to 5×40 mm and 6×40 mm stents. Loading concentrations were assessed prior to and after ETO (ethylene oxide) sterilization and no discernable change was noted by the process.
(§3) Histological studies were then performed at 60 and 90 days.

Data set [2] has the same test system. In words: histology of stented arteries (Example 4). In kind it is in vivo. Here is the method:
as §1, §2, §3

For data set [3] the test system is unchanged. The data set is described as follows: in vivo pharmacokinetics of drug coated stents (Example 4). To be noted: 7 and 28 days after implantation; preliminary; FIG. 10. Here is the method: as §1, §2
FIG. 10 sets forth some preliminary pharmacokinetic data obtained from the prepared stents at 7 and 28 days after implantation within the pigs.

A further data set can be described thus: solubility in PBS. In kind it is physicochemical. Here is the method:
Drug coatings with crystalline forms of tyrosine kinase inhibitors were also examined. Sunitinib was again chosen as the candidate drug and crystal pamoate salts were prepared by recrystaliization in ethanol or ethanol and DMF for a hemi-pamoate.

The conditions of data set [4]: octanol-water; cited from earlier work.
The conditions of data set [5]: cited from earlier work.

The structures appear in SMILES notation. Converted amounts (≈) assume the structure as drawn. “And” between values parts separate entries of the source, which are not always exact repeats. Equal values may be shown once. Read-outs that look alike come from different tables or passages of the source.

As to `COc1cc2c(c(OC)c1OC)-c1ccc(OC)c(=O)cc1[C@@H](NC(C)=O)CC2` [Colchicine, colchicine], in data set [1] (pig, in vivo), the “% Stenosis” value is 67.45% and 81.83%; the “Medial Area” value stood at 1.22; the “percentage of stenosis (in words)” value is recorded as “seemingly accelerated amount of stenosis”. Further, in data set [2] (pig, in vivo), the “Inflammation Score” value was 3.06; the Restenosis % area is 67.45% and 81.83%.

For the molecule `O=C(Nc1c(Cl)cncc1Cl)c1ccc(OC(F)F)c(OCC2CC2)c1` [Roflumilast, roflumilast], the “pharmacokinetic data versus target (in words)” value in data set [3] is recorded as “expected target ranges”. For the same molecule, in data set [2] (60 days), the Fibrin % is given as 16.65%, the Giant cell % is 0.49%, the “Inflammation Score” value is 0.69 and the PGs/Collagen score was 0.75. For the same molecule, the Restenosis % area in data set [2] (60 days) was 40.45%. Moreover, in data set [2] (90 days), the Fibrin % amounted to 1.0%, the Giant cell % is given as 0.0%, the “Inflammation Score” value turned out to be 0.56 and the PGs/Collagen score is recorded as 1.44. Besides, the Restenosis % area in data set [2] (90 days) was 30.69%.

Turning to `CCN(CC)CCNC(=O)c1c(C)[nH]c(/C=C2\C(=O)Nc3ccc(F)cc32)c1C` [Sunitinib as a free base, sunitinib], in “solubility in PBS”, the “solubility in PBS” value was found to be 26.4 µM (≈ 10.5 µg/mL).

Turning to `CCN(CC)CCNC(=O)c1c(C)[nH]c(/C=C2\C(=O)Nc3ccc(F)cc32)c1C` [Sunitinib, sunitinib], the “amount of restenosis observed (in words)” value in data set [1] is “improvements in the amount of restenosis observed”. Besides, the “percentage of stenosis (in words)” value in data set [1] (60 days) is “similar”. In data set [2] (60 days), the Fibrin % was 33.17%, the Giant cell % is reported as 4.14%, the “Inflammation Score” value was found to be 1.19 and the PGs/Collagen score came out at 1.06. The Restenosis % area in data set [2] (60 days) was 33.76%. Further, in data set [2] (90 days), the Fibrin % is recorded as 1.0%, the Giant cell % was 2.03%, the “Inflammation Score” value is on record as 0.25 and the PGs/Collagen score worked out at 1.31. In data set [2] (90 days), this molecule had a Restenosis % area of 30.77%.

For `CN1CC(=O)N2[C@H](c3ccc4c(c3)OCO4)c3[nH]c4ccccc4c3C[C@@H]2C1=O` [Tadalafil, tadalafil], in data set [3], the “pharmacokinetic data versus target (in words)” value is “lower than expected”. Also, the “amount of restenosis observed (in words)” value in data set [1] is recorded as “improvements in the amount of restenosis observed”. Further, the “percentage of stenosis (in words)” value in data set [1] (60 days) is listed as “similar”. Besides, in data set [2] (60 days), the Fibrin % amounted to 26.69%, the Giant cell % is 7.26%, the “Inflammation Score” value is given as 1.19 and the PGs/Collagen score was found to be 1.44. In data set [2] (60 days), the Restenosis % area turned out to be 35.38%. In data set [2] (90 days), the Fibrin % stood at 1.31%, the Giant cell % is on record as 30.12%, the “Inflammation Score” value turned out to be 1.94 and the PGs/Collagen score came out at 1.38. The Restenosis % area in data set [2] (90 days) is listed as 27.4%.

As to `CCN(CC)CCNC(=O)c1c(C)[nH]c(/C=C2\C(=O)Nc3ccc(F)cc32)c1C` [hemi-pamoate], in the data set “solubility in PBS”, the “solubility in PBS” value was determined as 6.02 µM (≈ 2.4 µg/mL).

The log P is a log measure of how a compound divides between an organic and an aqueous phase. On to `CC(=O)O[C@H]1C(=O)[C@@]2(C)[C@H]([C@H](OC(=O)c3ccccc3)[C@]3(O)C[C@H](OC(=O)[C@H](O)[C@@H](NC(=O)c4ccccc4)c4ccccc4)C(C)=C1C3(C)C)[C@]1(OC(C)=O)CO[C@@H]1C[C@@H]2O` [paclitaxel], for which the “log P” value in data set [4] was 7.4.

`CCN(CC)CCNC(=O)c1c(C)[nH]c(/C=C2\C(=O)Nc3ccc(F)cc32)c1C` [pamoate crystal]: the “solubility in PBS” value in the data set “solubility in PBS” was determined as 9.6 µM.

Turning to `CCN(CC)CCNC(=O)c1c(C)[nH]c(/C=C2\C(=O)Nc3ccc(F)cc32)c1C` [sunitinib malate], the “solubility in PBS” value in “solubility in PBS” (listed as malate salt) is 1231 µM. The water solubility entry in data set [5] was “about 25 mg/mL”.

(Values after patent US20260335514A1, “Drug-Coated Medical Devices & Methods of Making” (Bard Peripheral Vascular, Inc., priority 2022, published 2026).)
